Assay results: patent US20220281886A1, “NATRIURETIC PEPTIDE RECEPTOR A AGONISTS USEFUL FOR THE TREATMENT OF CARDIOMETABOLIC DISEASES, KIDNEY DISEASE AND DIABETES” (Merck Sharp & Dohme Corp., priority 2019, published 2022)

Target: T1, hNPRA (Homo sapiens, UniProt P16066)
T1 construct: expressed in transfected cells
T1 sequence (P16066 33-1061): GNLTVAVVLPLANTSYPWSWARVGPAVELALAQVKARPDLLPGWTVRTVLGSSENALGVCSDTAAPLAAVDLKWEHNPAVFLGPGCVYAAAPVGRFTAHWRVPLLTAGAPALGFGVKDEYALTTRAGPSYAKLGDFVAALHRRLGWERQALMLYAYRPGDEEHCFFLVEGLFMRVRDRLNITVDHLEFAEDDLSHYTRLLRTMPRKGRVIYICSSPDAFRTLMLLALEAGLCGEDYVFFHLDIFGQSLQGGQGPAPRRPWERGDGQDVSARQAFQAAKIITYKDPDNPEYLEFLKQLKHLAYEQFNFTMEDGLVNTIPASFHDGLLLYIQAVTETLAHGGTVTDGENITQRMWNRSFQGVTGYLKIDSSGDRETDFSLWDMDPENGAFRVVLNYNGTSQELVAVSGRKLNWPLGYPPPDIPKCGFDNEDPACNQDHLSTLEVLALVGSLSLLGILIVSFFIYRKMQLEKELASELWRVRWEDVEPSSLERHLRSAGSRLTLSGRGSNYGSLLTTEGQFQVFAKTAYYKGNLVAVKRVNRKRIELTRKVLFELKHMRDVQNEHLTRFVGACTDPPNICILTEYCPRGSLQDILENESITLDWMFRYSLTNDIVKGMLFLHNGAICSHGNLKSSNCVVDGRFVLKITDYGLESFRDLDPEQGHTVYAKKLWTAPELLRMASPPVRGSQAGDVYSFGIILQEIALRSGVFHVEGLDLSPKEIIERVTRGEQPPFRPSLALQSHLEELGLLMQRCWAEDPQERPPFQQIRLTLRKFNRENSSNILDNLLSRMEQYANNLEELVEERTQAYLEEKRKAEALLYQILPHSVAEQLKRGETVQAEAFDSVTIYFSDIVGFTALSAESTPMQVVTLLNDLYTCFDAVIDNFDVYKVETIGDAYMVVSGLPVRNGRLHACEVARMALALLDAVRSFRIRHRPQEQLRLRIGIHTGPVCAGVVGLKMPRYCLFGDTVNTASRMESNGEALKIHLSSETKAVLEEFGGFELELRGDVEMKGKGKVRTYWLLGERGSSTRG
Assay: NPRA Functional Cell Assay (cGMP HTRF)
Assay type: cell-based
Settings: Human NPRA HEK JumpIn stable cells; cGMP by HTRF after 1 hour at 37° C.; 10-point dose response
Text: Assay Buffer components HEPES and Opti-MEM® I Reduced-Serum with Glutamine (no phenol red) were from Gibco/Invitrogen (Thermo Fisher Scientific, Waltham, Mass. USA). 3-Isobutyl-1-methylxanthine (IBMX) and 4-(3-Butoxy-4-methoxybenzyl)imidazolidin-2-one (RO20) were obtained from Sigma-Aldrich (St. Louis, Mo., USA). DPBS (Dulbecco's phosphate-buffered saline) without Ca2+ and Mg2+ was purchased from GE Healthcare Bio-Sciences (Pittsburgh, Pa., USA). 384 well white Optiplates were from Perkin Elmer (Atlantic Highlands, N.J., USA). Human ANP (Atrial Natriuretic Peptide) (1-28) was purchased from Sigma-Aldrich (Catalog #A1663) and rat ANP (1-28) from Bachem (Torrance, Calif., USA) (Catalog #H2100). Human-BNP (Human-Brain Natriuretic Peptide) (1-32 AA) was purchased from American Peptide Company (Sunnyvale, Calif., USA) (product No. 14-1-90). cGMP kits were purchased from Cisbio. The assay ready frozen (ARF) Human/rat/dog NPRA HEK JumpIn Stable frozen cells (low passage number 5-11) were prepared in-house.
Test compounds were titrated in DMSO in a 10-point dose response in a separate step followed by a 100-fold dilution into the reaction. Positive response for each assay was determined using 10 nM rat-ANP peptide (rat cells) or 50 nM h-ANP peptide (human and dog cells).
Cells were thawed, washed with DPBS and resuspended in assay buffer (Opti-MEM+Glutamine, phenol red free media, 10 mM HEPES, 100 uM IBMX and 100 uM RO20) that was warmed to 37° C. Cells were then transferred to microplates via a Microplate Combi dispenser at a density of 1500, 400 and 1200 cells/well for human, rat and dog cells respectively, followed by acoustic transfer (Echo) of compound.
(§1) Compounds and cells were incubated at 37° C. with 5% CO2 for 1 hour, after which the cells were lysed and cGMP was captured using a CisBio cGMP HTRF assay kit. The TRF signal was measured with an Envision plate reader (emission set to 615 and 665 nm) after 1 hour incubation at ambient temperature. The TRF signal was converted to [cGMP] through the use of a cGMP calibration curve on each microplate. EC50's were generated from the resulting dose response curves by use of a 4 parameter logistic algorithm.
Assay Buffer components HEPES and Opti-MEM® I Reduced-Serum with Glutamine (no phenol red) were from Gibco/Invitrogen. 3-Isobutyl-1-methylxanthine (IBMX) and 4-(3-Butoxy-4-methoxybenzyl)imidazolidin-2-one (RO20) were obtained from Sigma. DPBS (Dulbecco's phosphate-buffered saline) without Ca2+ and Mg2+ was purchased from GE Healthcare Bio-Sciences (Pittsburgh, Pa., USA). 384 well white Optiplates were from Perkin Elmer (Atlantic Highlands, N.J., USA). Human ANP (1-28) was purchased from Sigma (A1663) and rat ANP (1-28) from Bachem (H2100). Human-BNP (1-32 AA) was purchased from American Peptide Company (Sunnyvale, Calif., USA) (product No. 14-1-90). cGMP kits were purchased from Cisbio (Bedford, Mass., USA). The assay ready frozen (ARF) Human/rat/dog NPRA HEK JumpIn Stable frozen cells (low passage number 5-11) were prepared in-house.
as §1, with “Envision®” for “Envision”, “(Perkin Elmer)(emission” for “(emission”
hNPRA EC50 (nM) are were determined for the compounds of Example 1 through 273 and are reported in the Experimental section of this application.

EC50	Compound
285 nM	CC(C)[C@]1(F)CCc2nc3c(F)cc(C(=O)N[C@H](CCN4CCCC4)c4ccc(-c5ccnnc5)nc4)cc3cc2C1 (racemic) [Example 35, rac-(7S)-4,7-difluoro-7-isopropyl-N-[rac-(1R)-1-(6-pyridazin-4-yl-3-pyridyl)-3-pyrrolidin-1-ium-1-yl-propyl]-6,8-dihydro-5H-acridine-2-carboxamide;2,2,2-trifluoroacetate]
260 nM	CC(C)[C@]1(F)CCc2nc3c(F)cc(C(=O)N[C@H](CCN4CCC[C@H](O)C4)c4ccc(-c5ccnnc5)nc4)cc3cc2C1 (racemic) [Example 36, rac-(7S)-4,7-difluoro-7-isopropyl-N-[rac-(1R)-1-(6-pyridazin-4-yl-3-pyridyl)-3-[rac-(3S)-3-hydroxypiperidin-1-ium-1-yl]propyl]-6,8-dihydro-5H-acridine-2-carboxamide;2,2,2-trifluoroacetate]
270 nM	CC(C)[C@]1(F)CCc2nc3c(F)cc(C(=O)N[C@H](CCN(C)C)c4ccc(-c5ccnnc5)nc4)cc3cc2C1 (racemic) [Example 37, dimethyl-[rac-(3R)-3-(6-pyridazin-4-yl-3-pyridyl)-3-[[rac-(7S)-4,7-difluoro-7-isopropyl-6,8-dihydro-5H-acridine-2-carbonyl]amino]propyl]ammonium;2,2,2-trifluoroacetate]
317 nM	CC(C)[C@]1(F)CCc2nc3c(F)cc(C(=O)N[C@H](CCN4CCC5(CCOC5)CC4)c4ccc(-c5ccnnc5)nc4)cc3cc2C1 (racemic) [Example 38, rac-(7S)-4,7-difluoro-7-isopropyl-N-[rac-(1R)-3-(2-oxa-8-azoniaspiro[4.5]decan-8-yl)-1-(6-pyridazin-4-yl-3-pyridyl)propyl]-6,8-dihydro-5H-acridine-2-carboxamide;2,2,2-trifluoroacetate]
258 nM	CC(C)[C@]1(F)CCc2nc3c(F)cc(C(=O)N[C@H](CCN4CCC5(CC4)CC5CO)c4ccc(-c5ccnnc5)nc4)cc3cc2C1 (mixture of isomers) [Example 39, rac-(7S)-4,7-difluoro-7-isopropyl-N-[rac-(1R)-3-[2-(hydroxymethyl)-6-azoniaspiro[2.5]octan-6-yl]-1-(6-pyridazin-4-yl-3-pyridyl)propyl]-6,8-dihydro-5H-acridine-2-carboxamide;2,2,2-trifluoroacetate]
338 nM	CC(C)[C@]1(F)CCc2nc3c(F)cc(C(=O)N[C@H](CCN4CCC[C@@H](O)C4)c4ccc(-c5ccnnc5)nc4)cc3cc2C1 (racemic) [Example 40, rac-(7S)-4,7-difluoro-7-isopropyl-N-[rac-(1R)-1-(6-pyridazin-4-yl-3-pyridyl)-3-[rac-(3R)-3-hydroxypiperidin-1-ium-1-yl]propyl]-6,8-dihydro-5H-acridine-2-carboxamide;2,2,2-trifluoroacetate]
236 nM	CC(O)C1CCN(CC[C@@H](NC(=O)c2cc(F)c3nc4c(cc3c2)C[C@](F)(C(C)C)CC4)c2ccc(-c3ccnnc3)nc2)CC1 (mixture of isomers) [Example 41, rac-(7S)-4,7-difluoro-7-isopropyl-N-[rac-(1R)-3-[4-(1-hydroxyethyl)piperidin-1-ium-1-yl]-1-(6-pyridazin-4-yl-3-pyridyl)propyl]-6,8-dihydro-5H-acridine-2-carboxamide;2,2,2-trifluoroacetate]
375 nM	CC(C)[C@]1(F)CCc2nc3c(F)cc(C(=O)N[C@H](CCN4CCC5CCCCC5C4)c4ccc(-c5ccnnc5)nc4)cc3cc2C1 (mixture of isomers) [Example 42, rac-(7S)-4,7-difluoro-7-isopropyl-N-[rac-(1R)-3-(1,2,3,4,4a,5,6,7,8,8a-decahydroisoquinolin-2-ium-2-yl)-1-(6-pyridazin-4-yl-3-pyridyl)propyl]-6,8-dihydro-5H-acridine-2-carboxamide;2,2,2-trifluoroacetate]
216 nM	CC(C)[C@]1(F)CCc2nc3c(F)cc(C(=O)N[C@H](CCN4CCCCC4CCN(C)C)c4ccc(-c5ccnnc5)nc4)cc3cc2C1 (mixture of isomers) [Example 43, rac-(7S)-4,7-difluoro-7-isopropyl-N-[rac-(1R)-3-[2-[2-(dimethylamino)ethyl]piperidin-1-ium-1-yl]-1-(6-pyridazin-4-yl-3-pyridyl)propyl]-6,8-dihydro-5H-acridine-2-carboxamide;2,2,2-trifluoroacetate]
150 nM	CC1CCCCN1CC[C@@H](NC(=O)c1cc(F)c2nc3c(cc2c1)C[C@](F)(C(C)C)CC3)c1ccc(-c2ccnnc2)nc1 (mixture of isomers) [Example 44, rac-(7S)-4,7-difluoro-7-isopropyl-N-[rac-(1R)-3-(2-methylpiperidin-1-ium-1-yl)-1-(6-pyridazin-4-yl-3-pyridyl)propyl]-6,8-dihydro-5H-acridine-2-carboxamide;2,2,2-trifluoroacetate]
136 nM	CC(C)[C@]1(F)CCc2nc3c(F)cc(C(=O)N[C@H](CCN4CCC(CO)CC4)c4ccc(-c5ccnnc5)nc4)cc3cc2C1 (racemic) [Example 45, rac-(7S)-4,7-difluoro-7-isopropyl-N-[rac-(1R)-3-[4-(hydroxymethyl)piperidin-1-ium-1-yl]-1-(6-pyridazin-4-yl-3-pyridyl)propyl]-6,8-dihydro-5H-acridine-2-carboxamide;2,2,2-trifluoroacetate]
204 nM	COCC1CCN(CC[C@@H](NC(=O)c2cc(F)c3nc4c(cc3c2)C[C@](F)(C(C)C)CC4)c2ccc(-c3ccnnc3)nc2)CC1 (racemic) [Example 46, rac-(7S)-4,7-difluoro-7-isopropyl-N-[rac-(1R)-3-[4-(methoxymethyl)piperidin-1-ium-1-yl]-1-(6-pyridazin-4-yl-3-pyridyl)propyl]-6,8-dihydro-5H-acridine-2-carboxamide;2,2,2-trifluoroacetate]
